From patent publication US10071082B2, “Antimicrobial agents” (Rutgers, The State University of New Jersey, priority 2013, dated 2018) come the findings set out here.

The test system of assay [1] is S. aureus ATCC 19636 (MSSA). Kind of assay: Test D in vivo efficacy, mouse peritonitis model of systemic infection. Conditions: mice.
A further assay concerns MRSA. Briefly: Test A antibacterial assay, broth microdilution MIC. Conditions: Staphylococcus aureus, read-out: MIC MRSA. In kind it is cell-based. The procedure:
(§1) Antibacterial activity can be determined as per Clinical and Laboratory Standards Institute (CLSI) guidelines using a broth microdilution assay in which log-phase bacteria are grown at 37° C. in appropriate medium containing two-fold serial dilutions of a compound to yield final concentrations ranging from 256 to 0.06 μg/mL. For determination of minimal inhibitory concentration (MIC) values, bacterial growth is monitored after 24 to 48 hours by measuring optical density at 600 nm.
On the technique in general: Broth dilution looks for growth in wells or tubes with falling amounts of substance.

A further assay has as its system MSSA. The description is as above. To be noted: Staphylococcus aureus, read-out: MIC MSSA. In kind it is cell-based. On the procedure: as §1

SMILES strings stand for the structures. Converted amounts (≈) assume the structure as drawn.

For the compound `CN1CCC(C(=O)NC(=O)c2c(F)ccc(OCc3nc4cc(C(F)(F)F)cnc4s3)c2F)CC1` [Example 44], the “Survival (%)” value in assay [1] (i.v., 1x, total dose 0.9 mg/mouse, 24 Hrs) was 83.3%; in assay [1] (i.v., 1x, total dose 0.9 mg/mouse, 48 Hrs), 83.3%; in assay [1] (i.v., 1x, total dose 0.9 mg/mouse, 72 Hrs), 83.3%; in assay [1] (i.v., 2x, total dose 1.8 mg/mouse, 24 Hrs) it was 100%; in assay [1] (i.v., 2x, total dose 1.8 mg/mouse, 48 Hrs) it was 100%; in assay [1] (i.v., 2x, total dose 1.8 mg/mouse, 72 Hrs) it was 100%. In addition, the “Survival (%)” value is reported as 50% in assay [1] (p.o., 1x, total dose 0.8 mg/mouse, 24 Hrs); 50% in assay [1] (p.o., 1x, total dose 0.8 mg/mouse, 48 Hrs); 50% in assay [1] (p.o., 1x, total dose 0.8 mg/mouse, 72 Hrs); 100% in assay [1] (p.o., 2x, total dose 1.6 mg/mouse, 24 Hrs); 100% in assay [1] (p.o., 2x, total dose 1.6 mg/mouse, 48 Hrs); 100% in assay [1] (p.o., 2x, total dose 1.6 mg/mouse, 72 Hrs). In addition, the “Survival (%)” value was 100% in assay [1] (p.o., 3x, total dose 2.4 mg/mouse, 24 Hrs); 100% in assay [1] (p.o., 3x, total dose 2.4 mg/mouse, 48 Hrs); 100% in assay [1] (p.o., 3x, total dose 2.4 mg/mouse, 72 Hrs); 100% in assay [1] (p.o., 4x, total dose 3.2 mg/mouse, n/group 4, 24 Hrs); 100% in assay [1] (p.o., 4x, total dose 3.2 mg/mouse, n/group 4, 48 Hrs); 100% in assay [1] (p.o., 4x, total dose 3.2 mg/mouse, n/group 4, 72 Hrs). Moreover, the MIC with MRSA was found to be 2 µg/mL (≈ 3.89 µM); in the assay on MSSA it was 0.5 µg/mL (≈ 0.972 µM).

The term MIC denotes the lowest concentration that inhibits growth of the organism.
